Data from article PMC9034380 (RSC Advances, 2021).

What was measured:
Assay type in all cases: cell-based
Hh signaling pathway = assay: Gli-luciferase; settings: for IC50: read-out: Gli-luc reporter IC50
wild-type Smo = wild-type Smo (Mus musculus, UniProt P56726); assay: Gli-Luc reporter assay in NIH3T3-Gli-Luc cells overexpressing wild-type Smo
Smo D477G = Smo D477G (Mus musculus, UniProt P56726, D477G); assay: Gli-Luc reporter assay in NIH3T3-Gli-Luc cells overexpressing Smo D477G
Daoy cells = assay: Cell proliferation; settings: Homo sapiens, 48 h, read-out: cell viability
Smo = Smo (Homo sapiens, UniProt Q99835); assay: Smo ciliary localization in NIH3T3 cells expressing Smo treated with Shh
Chain of Smo (Q99835 28-787): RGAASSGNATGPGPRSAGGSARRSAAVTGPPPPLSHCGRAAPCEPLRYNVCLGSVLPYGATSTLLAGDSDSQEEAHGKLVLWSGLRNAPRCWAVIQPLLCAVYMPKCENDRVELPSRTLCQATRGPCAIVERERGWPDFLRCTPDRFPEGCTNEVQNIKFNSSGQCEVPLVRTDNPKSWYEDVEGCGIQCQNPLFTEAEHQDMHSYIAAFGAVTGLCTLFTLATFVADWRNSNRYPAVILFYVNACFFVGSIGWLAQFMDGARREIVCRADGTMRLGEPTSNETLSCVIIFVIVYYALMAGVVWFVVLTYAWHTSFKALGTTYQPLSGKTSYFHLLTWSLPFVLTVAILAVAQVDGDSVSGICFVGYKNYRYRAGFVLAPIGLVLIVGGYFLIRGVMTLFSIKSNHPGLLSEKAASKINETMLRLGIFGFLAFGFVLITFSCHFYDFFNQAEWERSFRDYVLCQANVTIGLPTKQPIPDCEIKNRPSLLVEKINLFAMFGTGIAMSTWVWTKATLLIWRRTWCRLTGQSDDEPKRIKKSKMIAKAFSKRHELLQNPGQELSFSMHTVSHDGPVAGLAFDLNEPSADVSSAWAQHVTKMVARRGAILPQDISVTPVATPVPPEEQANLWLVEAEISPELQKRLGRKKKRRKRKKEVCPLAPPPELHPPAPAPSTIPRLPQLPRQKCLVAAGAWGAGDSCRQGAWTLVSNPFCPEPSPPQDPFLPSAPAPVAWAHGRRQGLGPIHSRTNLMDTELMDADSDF

Chain of Smo D477G (P56726 33-793 D477G): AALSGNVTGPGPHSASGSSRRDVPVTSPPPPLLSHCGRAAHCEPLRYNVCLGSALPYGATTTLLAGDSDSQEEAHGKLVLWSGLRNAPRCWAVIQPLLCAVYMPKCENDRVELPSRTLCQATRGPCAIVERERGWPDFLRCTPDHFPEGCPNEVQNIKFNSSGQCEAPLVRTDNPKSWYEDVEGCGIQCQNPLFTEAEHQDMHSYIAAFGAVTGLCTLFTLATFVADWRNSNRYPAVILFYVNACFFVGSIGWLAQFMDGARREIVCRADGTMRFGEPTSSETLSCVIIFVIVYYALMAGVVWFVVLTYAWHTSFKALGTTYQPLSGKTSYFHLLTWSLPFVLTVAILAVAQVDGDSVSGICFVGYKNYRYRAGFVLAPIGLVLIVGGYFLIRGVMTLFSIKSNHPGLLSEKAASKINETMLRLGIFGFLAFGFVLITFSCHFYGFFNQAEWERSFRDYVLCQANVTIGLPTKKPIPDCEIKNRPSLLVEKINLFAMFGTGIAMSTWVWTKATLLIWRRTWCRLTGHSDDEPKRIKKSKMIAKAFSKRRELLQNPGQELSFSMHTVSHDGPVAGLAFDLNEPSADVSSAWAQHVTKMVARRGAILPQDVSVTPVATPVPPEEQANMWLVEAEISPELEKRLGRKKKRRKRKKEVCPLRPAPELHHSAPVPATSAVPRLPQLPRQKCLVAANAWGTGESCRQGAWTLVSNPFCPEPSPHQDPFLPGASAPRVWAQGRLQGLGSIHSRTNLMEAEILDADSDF
Chain of wild-type Smo (P56726 33-793): as the sequence (P56726 33-793 D477G) above, with G445D counted along it

Compound | IC50 (Hh signaling pathway) | other results
COc1cc(NC(=O)c2ccccc2Cl)ccc1C(=O)Nc1ccc(Cl)c(-c2ncc(-c3ccccc3)[nH]2)c1 [Compound 17] | 120 ± 60 nM | –
CS(=O)(=O)c1ccc(C(=O)Nc2ccc(Cl)c(-c3ccccn3)c2)c(Cl)c1 [Compound 1, vismodegib, reference compound] | 20 ± 10 nM | –
COc1cc(NC(=O)c2ccc(Cl)cc2Cl)ccc1C(=O)Nc1ccc(Cl)c(-c2ncc(-c3ccccc3)[nH]2)c1 [Compound 18] | 260 ± 80 nM | loss of potency vs compound 17 (Hh signaling pathway; Gli-luc IC50 ratio to compound 17): 2.2 fold
COc1cc(NC(=O)c2cccnc2)ccc1C(=O)Nc1ccc(Cl)c(-c2nc3ccccc3[nH]2)c1 [Compound 16] | 80 ± 20 nM | –
COc1cc(NC(=O)c2cccnc2Cl)ccc1C(=O)Nc1ccc(Cl)c(-c2nc3ccccc3[nH]2)c1 [Compound 14] | 50 ± 20 nM | –

Now from value to compound, other results behind:

IC50 (Hh signaling pathway) | Compound | other results
250 ± 40 nM | COc1cc(NC(=O)c2ccc(F)cc2)ccc1C(=O)Nc1ccc(Cl)c(-c2ncc(-c3ccccc3)[nH]2)c1 [Compound 20] | –
70 ± 20 nM | COc1cc(NC(=O)c2cccnc2)ccc1C(=O)Nc1ccc(Cl)c(-c2ncc(-c3ccccc3)[nH]2)c1 [Compound 23] | –
150 ± 80 nM | COc1cc(NC(=O)c2ccc(Cl)nc2)ccc1C(=O)Nc1ccc(Cl)c(-c2ncc(-c3ccccc3)[nH]2)c1 [Compound 22] | –
30 ± 10 nM | COc1cc(NC(=O)c2cccnc2Cl)ccc1C(=O)Nc1ccc(Cl)c(-c2ncc(-c3ccccc3)[nH]2)c1 [Compound 21] | potency compared to compound 3 (Hh signaling pathway; Gli-luc reporter, fold higher than compound 3): 6 fold; IC50 (wild-type Smo): 39 nM; IC50 (Smo D477G): 96 nM; Hh pathway inhibition in mutant D477G (Smo D477G; NIH3T3-Gli-Luc cells overexpressing Smo D477G): slightly decreased; shift in IC50, mutant D477G vs WT (Smo D477G; Smo D477G vs wild-type Smo): 2.4 fold; viability at 1 µM (Daoy cells): 72%; viability at 10 µM (Daoy cells): 43%; Smo ciliary translocation (Smo): sharp drop
